Test results from patent US12221426B2, “Inhibitory material against human body-derived nicotinamide adenine dinucleotide phosphate-dependent steroid dehydrogenase-like, and anticancer agent comprising same as effective ingredient or pharmaceutical composition comprising same as effective ingredient for treatment of hyperlipidemia” (SEOUL NATIONAL UNIVERSITY R&DB FOUNDATION, priority 2018, dated 2025).

biological target: Human-derived nicotinamide adenine dinucleotide phosphate-dependent steroid dehydrogenase (NSDHL) (Homo sapiens (Human), UniProt Q15738); test: NSDHL inhibitory activity evaluation: decrease of NADH fluorescence amplification when inhibitor releases NADH from NSDHL; type: binding; conditions: recombinant NSDHL (16 μM, 50 μl) + NADH (50 μM, 50 μl), room temperature 10 min, Ex 340 nm/Em 460 nm, 96-well plate
Sequence (Q15738 whole entry): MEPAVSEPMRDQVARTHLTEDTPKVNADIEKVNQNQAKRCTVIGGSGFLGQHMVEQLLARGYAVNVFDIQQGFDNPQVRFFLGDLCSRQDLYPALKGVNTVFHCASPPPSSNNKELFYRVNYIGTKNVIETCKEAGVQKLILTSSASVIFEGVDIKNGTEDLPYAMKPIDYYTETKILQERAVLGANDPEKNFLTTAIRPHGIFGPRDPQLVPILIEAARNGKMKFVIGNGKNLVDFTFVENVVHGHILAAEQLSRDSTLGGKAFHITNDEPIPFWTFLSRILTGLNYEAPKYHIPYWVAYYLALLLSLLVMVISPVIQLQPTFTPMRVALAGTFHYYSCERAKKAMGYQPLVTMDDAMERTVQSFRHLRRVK
Method: In order to evaluate the nicotinamide adenine dinucleotide phosphate-dependent steroid dehydrogenase (NSDHL) inhibitory activity of the compound provided in one aspect of the present invention, the following experiment was performed.
Human-derived nicotinamide adenine dinucleotide phosphate-dependent steroid dehydrogenase (NADP-dependent steroid dehydrogenase-like; NSDHL) was expressed in large quantities in E. coli. The NSDHL gene was inserted into pET21a plasmid, which was cloned into E. coli C41 (DE3). After culturing E. coli in Luria Broth medium at 37° C., IPTG was added thereto at the time when OD600 was about 0.7 to express NSDHL, followed by culture at 37° C. for 4 hours.
The cultured E. coli was centrifuged, and the cells were stored at −80° C. The cells were crushed by sonification, which was first purified using IMAC (Immobilized metallo-affinity chromatography), and then finally purified using SEC (Size exclusion chromatography). The composition of the buffer solution for storing NSDHL was as follows: 40 mM HEPES (pH 8.0), 150 mM NaCl, and 0.5 mM TCEP.
When dehydrogenase binds to NADH, fluorescence intensity is amplified compared to NADH alone. In other words, if the dehydrogenase, NSDHL, is treated with an inhibitor in a state in which it is bound to NADH, the fluorescence intensity will be reduced because NADH is released. FIG. 1 is a graph showing the results of measuring the fluorescence intensity of NADH according to the concentration of NSDHL.
In addition, it was also confirmed in FIG. 2 that an experiment for inhibiting was possible using NAD+, which is an oxidized form of NADH, but is not measured in the fluorescence measurement range of NADH. FIG. 2 is a graph showing the results of an experiment for inhibiting NSDHL and NADH conjugate using NAD+.
An activity assay was performed using a 96-well plate, and an experiment was performed after adding an inhibitor to each well at the final concentrations of 200 μM≤1 μM. Particularly, 50 μl of 16 μM NSDHL, 50 mM HEPES, 20% glycerol were added to each well, and then 50 ul of 50 μM NADH was added to each well, followed by reaction at room temperature for 10 minutes. The fluorescence level of each well was measured using SpectraMax M5 (Molecular Devices) equipment (Ex: 340 nm, Em: 460 nm). The values were corrected by separately measuring the absorbance of the compound and the buffer solution, and the degree of inhibition of each compound against NSDHL was measured based on the NADH fluorescence at the same concentration without binding. IC50 (inhibitory concentration at 50%) was calculated using GraphPad Prism software.

How did the IC50 turn out when `O=C(O)CN1C(=O)/C(=C/c2cc(-c3ccc(F)cc3)ccc2OCc2ccc(C(=O)O)cc2)SC1=S` [Example 1, (Z)-4-((3-((3-(carboxymethyl)-4-oxo-2-thioxothiazolidin-5-ylidene)methyl)-4′-fluorobiphenyl-4-yloxy)methyl)benzoic acid] was run?
The IC50 was 10.4 µM.

How did the IC50 turn out when `O=C(O)CN1C(=O)/C(=C/c2cc(Br)ccc2OCc2ccccc2I)SC1=S` [Example 5, (Z)-2-(5-(5-bromo-2-(2-iodobenzyloxy)benzylidene)-4-oxo-2-thioxothiazolidin-3-yl)acetic acid] was run?
The IC50 was 27.1 µM.

For `COc1cccc(OCc2ccccc2)c1/C=C1\SC(=S)N(CC(=O)O)C1=O` [Example 3, (Z)-2-(5-(2-(benzyloxy)-6-methoxybenzylidene)-4-oxo-2-thioxothiazolidin-3-yl)acetic acid], which IC50 is on record?
Its IC50 is 19.9 µM.

Which IC50 does the source give for `O=C(O)CN1C(=O)/C(=C/c2ccc(O)cc2OCc2ccccc2Br)SC1=S` [Example 4, (Z)-2-(5-(2-(2-bromobenzyloxy)-4-hydroxybenzylidene)-4-oxo-2-thioxothiazolidin-3-yl)acetic acid] here?
Its IC50 is 17.8 µM.

Which IC50 does the source give for `O=C(O)CN1C(=O)/C(=C/c2cn(-c3ccc(F)cc3)nc2-c2cccc(Cl)c2)SC1=S` [Example 2, (Z)-2-(5-((3-(3-chlorophenyl)-1-(4-fluorophenyl)-1H-pyrazole-4-yl)methylene)-4-oxo-2-thioxothiazolidin-3-yl)acetic acid] here?
The IC50 was 12.8 µM.
